ChEMBL document CHEMBL3244163, “Antifungal agents. 5. Chemical modification of antibiotics from Polyangium cellulosum var. fulvum. Alcohol, ketone, aldehyde, and oxime analogues of ambruticin” (1979)
Values after ≈ are worked out from the molar mass of the structure shown. Active and inactive are the calls of the source. The calls are words filed in the database; no cut-off is given here.

What was measured:
Streptococcus pyogenes = experiment: Antibacterial activity against Streptococcus pyogenes by standard broth dilution technique; type: functional, organism-based
Candida albicans = experiment: Antifungal activity against Candida albicans by standard broth dilution technique; type: functional, organism-based
Histoplasma capsulatum = experiment: Antifungal activity against Histoplasma capsulatum assessed as growth inhibition after 3 days by standard broth dilution technique; type: functional; settings: 72 h
[1] = Antifungal activity against Microsporum fulvum assessed as growth inhibition after 3 days by standard broth dilution technique; type: functional; settings: Arthroderma fulvum

Compound | Activity (Streptococcus pyogenes) | Activity (Candida albicans) | MIC (Histoplasma capsulatum) | MIC [1]
CC[C@H]1O[C@@H](/C(C)=C/[C@H](C)/C=C/[C@H]2[C@@H](C)[C@@H]2/C=C/[C@@H]2O[C@H](CC(C)=O)C[C@H](O)[C@H]2O)CC=C1C | inactive | inactive | 0.39 µg/mL (≈ 0.825 µM) | 0.195 µg/mL (≈ 0.413 µM)
CC[C@H]1O[C@@H](/C(C)=C/[C@H](C)/C=C/[C@H]2[C@@H](C)[C@@H]2/C=C/[C@@H]2O[C@H](CC(=O)C(C)(C)C)C[C@H](O)[C@H]2O)CC=C1C | inactive | inactive | 12.5 µg/mL (≈ 24.3 µM) | > 50 µg/mL
CC[C@H]1O[C@@H](/C(C)=C/[C@H](C)/C=C/[C@H]2[C@@H](C)[C@@H]2/C=C/[C@@H]2O[C@H](CC(O)c3ccccc3)C[C@H](O)[C@H]2O)CC=C1C (some centres undefined) | inactive | inactive | 1.56 µg/mL (≈ 2.91 µM) | 1.56 µg/mL (≈ 2.91 µM)
CC[C@H]1O[C@@H](/C(C)=C/[C@H](C)/C=C/[C@H]2[C@@H](C)[C@@H]2/C=C/[C@@H]2O[C@H](CC(C)O)C[C@H](O)[C@H]2O)CC=C1C (some centres undefined) | inactive | inactive | 0.098 µg/mL (≈ 0.206 µM) | 0.195 µg/mL (≈ 0.411 µM)
CCC(=O)C[C@@H]1C[C@H](O)[C@@H](O)[C@H](/C=C/[C@H]2[C@H](C)[C@@H]2/C=C/[C@@H](C)/C=C(\C)[C@H]2CC=C(C)[C@@H](CC)O2)O1 | inactive | inactive | 0.78 µg/mL (≈ 1.6 µM) | 0.78 µg/mL (≈ 1.6 µM)
CC[C@H]1O[C@@H](/C(C)=C/[C@H](C)/C=C/[C@H]2[C@@H](C)[C@@H]2/C=C/[C@@H]2O[C@H](CCOC(=O)Nc3ccc(Cl)cc3)C[C@H](OC(=O)Nc3ccc(Cl)cc3)[C@H]2OC(=O)Nc2ccc(Cl)cc2)CC=C1C | inactive | inactive |  | > 50 µg/mL
CC[C@H]1O[C@@H](/C(C)=C/[C@H](C)/C=C/[C@H]2[C@@H](C)[C@@H]2/C=C/[C@@H]2O[C@H](CCOC(=O)Nc3ccc(Br)cc3)C[C@H](OC(=O)Nc3ccc(Br)cc3)[C@H]2OC(=O)Nc2ccc(Br)cc2)CC=C1C | inactive | inactive |  | > 50 µg/mL
CC[C@H]1O[C@@H](/C(C)=C/[C@H](C)/C=C/[C@H]2[C@@H](C)[C@@H]2/C=C/[C@@H]2O[C@H](CCO)C[C@H](O)[C@H]2O)CC=C1C | inactive | inactive | 0.098 µg/mL (≈ 0.213 µM) | 0.098 µg/mL (≈ 0.213 µM)
CC[C@H]1O[C@@H](/C(C)=C/[C@H](C)/C=C/[C@H]2[C@@H](C)[C@@H]2/C=C/[C@@H]2O[C@H](CCOC(C)=O)C[C@H](OC(C)=O)[C@H]2OC(C)=O)CC=C1C | inactive | inactive | 50 µg/mL (≈ 85.2 µM) | > 50 µg/mL
CC[C@H]1O[C@@H](/C(C)=C/[C@H](C)/C=C/[C@H]2[C@@H](C)[C@@H]2/C=C/[C@@H]2O[C@H](CC(=O)OC)C[C@H](O)[C@H]2O)CC=C1C | inactive | inactive | 0.39 µg/mL (≈ 0.798 µM) | 0.39 µg/mL (≈ 0.798 µM)
CC[C@H]1O[C@@H](/C(C)=C/[C@H](C)/C=C/[C@H]2[C@@H](C)[C@@H]2/C=C/[C@@H]2O[C@H](CC(O)(c3ccccc3)c3ccccc3)C[C@H](O)[C@H]2O)CC=C1C | inactive | inactive | 50 µg/mL (≈ 81.6 µM) | > 50 µg/mL
CC[C@H]1O[C@@H](/C(C)=C/[C@H](C)/C=C/[C@H]2[C@@H](C)[C@@H]2/C=C/[C@@H]2O[C@H](CC(=O)OC)CC(=O)[C@H]2O)CC=C1C | inactive | inactive | 0.39 µg/mL (≈ 0.801 µM) | 0.195 µg/mL (≈ 0.401 µM)
CC[C@H]1O[C@@H](/C(C)=C/[C@H](C)/C=C/[C@H]2[C@@H](C)[C@@H]2/C=C/[C@@H]2O[C@H](CCO)C[C@@](O)(c3ccccc3)[C@H]2O)CC=C1C | inactive | inactive | 3.12 µg/mL (≈ 5.81 µM) | 6.25 µg/mL (≈ 11.6 µM)
CC[C@H]1O[C@@H](/C(C)=C/[C@H](C)/C=C/[C@H]2[C@@H](C)[C@@H]2/C=C/[C@@H]2O[C@H](CC=O)C[C@H](O)[C@H]2O)CC=C1C | inactive | inactive | 0.78 µg/mL (≈ 1.7 µM) | 0.098 µg/mL (≈ 0.214 µM)
CC[C@H]1O[C@@H](/C(C)=C/[C@H](C)/C=C/[C@H]2[C@@H](C)[C@@H]2/C=C/[C@@H]2O[C@H](CCO)C[C@@](O)(CC)[C@H]2O)CC=C1C | inactive | inactive | 1.56 µg/mL (≈ 3.19 µM) | 1.56 µg/mL (≈ 3.19 µM)
CC[C@H]1O[C@@H](/C(C)=C/[C@H](C)/C=C/[C@H]2[C@@H](C)[C@@H]2/C=C/[C@@H]2O[C@H](CC(O)(CC)CC)C[C@H](O)[C@H]2O)CC=C1C | inactive | inactive | 1.56 µg/mL (≈ 3.02 µM) | 3.12 µg/mL (≈ 6.04 µM)

Compound | Activity (Streptococcus pyogenes) | Activity (Candida albicans) | MIC (Histoplasma capsulatum) | MIC [1]
CC[C@H]1O[C@@H](/C(C)=C/[C@H](C)/C=C/[C@H]2[C@@H](C)[C@@H]2/C=C/[C@@H]2O[C@H](CC(=O)O)C[C@@H](O)[C@H]2O)CC=C1C | inactive | inactive | 0.78 µg/mL (≈ 1.64 µM) | 0.195 µg/mL (≈ 0.411 µM)
CC[C@H]1O[C@@H](/C(C)=C/[C@H](C)/C=C/[C@H]2[C@@H](C)[C@@H]2/C=C/[C@@H]2O[C@H](CC(=O)OC)C[C@@H](O)[C@H]2O)CC=C1C | inactive | inactive | 0.39 µg/mL (≈ 0.798 µM) | 0.39 µg/mL (≈ 0.798 µM)
CC[C@H]1O[C@@H](/C(C)=C/[C@H](C)/C=C/[C@H]2[C@@H](C)[C@@H]2/C=C/[C@@H]2O[C@H](CCO)C/C(=N\O)[C@H]2O)CC=C1C | inactive | inactive | 0.098 µg/mL (≈ 0.207 µM) | 0.195 µg/mL (≈ 0.412 µM)
CC[C@H]1O[C@@H](/C(C)=C/[C@H](C)/C=C/[C@H]2[C@@H](C)[C@@H]2/C=C/[C@@H]2O[C@H](CC(=O)c3ccccc3)C[C@H](O)[C@H]2O)CC=C1C | inactive | inactive | 6.25 µg/mL (≈ 11.7 µM) | 25 µg/mL (≈ 46.8 µM)
CC[C@H]1O[C@@H](/C(C)=C/[C@H](C)/C=C/[C@H]2[C@@H](C)[C@@H]2/C=C/[C@@H]2O[C@H](CC(O)C(C)(C)C)C[C@H](O)[C@H]2O)CC=C1C (some centres undefined) | inactive | inactive | 6.25 µg/mL (≈ 12.1 µM) | > 50 µg/mL
CC[C@H]1O[C@@H](/C(C)=C/[C@H](C)/C=C/[C@H]2[C@@H](C)[C@@H]2/C=C/[C@@H]2O[C@H](CC(=O)O)C[C@H](O)[C@H]2O)CC=C1C [AMBRUTICIN] | inactive | inactive | 0.39 µg/mL (≈ 0.822 µM) | 0.098 µg/mL (≈ 0.206 µM)
CC[C@H]1O[C@@H](/C(C)=C/[C@H](C)/C=C/[C@H]2[C@@H](C)[C@@H]2/C=C/[C@@H]2O[C@H](CC(=O)O)C/C(=N/O)[C@H]2O)CC=C1C | inactive | inactive | 3.12 µg/mL (≈ 6.4 µM) | 1.56 µg/mL (≈ 3.2 µM)
CC[C@H]1O[C@@H](/C(C)=C/[C@H](C)/C=C/[C@H]2[C@@H](C)[C@@H]2/C=C/[C@@H]2O[C@H](CCOC(=O)Nc3ccccc3)C[C@H](OC(=O)Nc3ccccc3)[C@H]2OC(=O)Nc2ccccc2)CC=C1C | inactive | inactive |  | > 50 µg/mL
CC[C@H]1O[C@@H](/C(C)=C/[C@H](C)/C=C/[C@H]2[C@@H](C)[C@@H]2/C=C/[C@@H]2O[C@H](CCO)CC(=O)[C@H]2O)CC=C1C | inactive | inactive | 6.25 µg/mL (≈ 13.6 µM) | 0.78 µg/mL (≈ 1.7 µM)
CC[C@H]1O[C@@H](/C(C)=C/[C@H](C)/C=C/[C@H]2[C@@H](C)[C@@H]2/C=C/[C@@H]2O[C@H](CCO)C[C@](C)(O)[C@H]2O)CC=C1C | inactive | inactive | 0.78 µg/mL (≈ 1.64 µM) | 0.78 µg/mL (≈ 1.64 µM)
CC[C@H]1O[C@@H](/C(C)=C/[C@H](C)/C=C/[C@H]2[C@@H](C)[C@@H]2/C=C/[C@@H]2O[C@H](CC(=O)OC)C/C(=N/O)[C@H]2O)CC=C1C | inactive | inactive | 0.78 µg/mL (≈ 1.55 µM) | 
CC[C@H]1O[C@@H](/C(C)=C/[C@H](C)/C=C/[C@H]2[C@@H](C)[C@@H]2/C=C/[C@@H]2O[C@H](CC(O)(C(C)C)C(C)C)C[C@H](O)[C@H]2O)CC=C1C | inactive | inactive | 50 µg/mL (≈ 91.8 µM) | > 50 µg/mL
CC[C@H]1O[C@@H](/C(C)=C/[C@H](C)/C=C/[C@H]2[C@@H](C)[C@@H]2/C=C/[C@@H]2O[C@H](CC(C)(C)O)C[C@H](O)[C@H]2O)CC=C1C | inactive | inactive | 0.78 µg/mL (≈ 1.6 µM) | 0.195 µg/mL (≈ 0.399 µM)
CC[C@H]1O[C@@H](/C(C)=C/[C@H](C)/C=C/[C@H]2[C@@H](C)[C@@H]2/C=C/[C@@H]2O[C@H](CCO)C[C@@H](O)[C@H]2O)CC=C1C | inactive | inactive | 0.39 µg/mL (≈ 0.847 µM) | 0.39 µg/mL (≈ 0.847 µM)
CCC(O)C[C@@H]1C[C@H](O)[C@@H](O)[C@H](/C=C/[C@H]2[C@H](C)[C@@H]2/C=C/[C@@H](C)/C=C(\C)[C@H]2CC=C(C)[C@@H](CC)O2)O1 (some centres undefined) | inactive | inactive | 0.78 µg/mL (≈ 1.6 µM) | 
